From article PMC5670154, “Anti-tumor and Anti-angiogenic Ergosterols from Ganoderma lucidum” (Frontiers in Chemistry, 2017)
Read-outs that look alike come from different tables or passages of the source.

Key:
[1] = tested on: human hepatocellular carcinoma cells HepG2; test: MTT anti-proliferative assay, HepG2; assay type: cell-based; conditions: for Experimental pIC50: HepG2
Experimental: (§1) Human breast carcinoma cells MDA-MB-231, human hepatocellular carcinoma cells HepG2, and human lung carcinoma cells A549, were purchased from ATCC, or were gifted by Professor Burton B. Yang from University of Toronto, Canada. The anti-proliferative effect of total extract (GL), fractions (GL1–GL4), and compounds 1–14 on tumor cell lines was evaluated by MTT assay (Franchi et al., [2012]). Total extract (GL) and fractions (GL1–GL4) were evaluated for their anti-proliferative effect on three types of carcinoma cells (MDA-MB-231, HepG2, and A549). Compounds 1–14 were chosen to evaluate for their anti-proliferative effect against MDA-MB-231 and HepG2 cells. Hundred microliters of cells suspension (5 × 10^4 cells/mL) was seeded into wells of a 96-well plate. After being incubated for 4 h, different concentrations of fractions/compounds were added onto the cells and incubated. After 48 h, 150 μL of 3-[4,5-dimethylthiazol-2-yl]-2,5-diphenyl tetrazolium bromide (MTT) solution (Sigma) was added to each well, and cells were kept being incubated for 4 h. After removing the MTT/medium, DMSO (100 μL) of was added to each well and was agitated at 60 rpm for 5 min. The optical density of the assay 96-well plate was read (λ = 540 nm) on a microplate reader.
(§2) IC50-values were calculated and analyzed using SPSS with three replications, each carried out in triplicate. Data were expressed as mean ± SD and analyzed by one-way ANOVA followed by two-tailed Student's t-test. A difference was considered significant at the P < 0.05 or P < 0.01 level.

[2] = tested on: Human breast carcinoma cells MDA-MB-231; test: MTT anti-proliferative assay, MDA-MB-231; assay type: cell-based; conditions: mean ± SD
Experimental: as §1, §2

HUVECs = test: Anti-angiogenesis activity, MTT assay on HUVECs; assay type: cell-based, human; conditions: for EC50: MTT, 48 h, mean ± SD; for selective inhibition, tumor cells versus HUVECs: comparison of MDA-MB-231/HepG2 and HUVEC values
Experimental: HUVECs (KeyGEN BioTECH Co., Ltd, Jiangsu, China) were cultured in ECM (endothelial cell medium) with 5% (v/v) FBS, 1% (v/v) ECGS, and 1% penicillin-streptomycin (w/v) at 37°C in a cell incubator. The MTT assay was employed to assess the anti-angiogenic effect of the isolated compounds against HUVECs as described previously with mild modification (Liang et al., [2015]; Nguyen et al., [2015]). Briefly, HUVECs were seeded into a 96-well plate and incubated. Different concentrations of compounds 1–14 were added onto the cells after 4 h, and continued to be co-incubated for 48 h. Next, the cells were co-incubated with MTT (Sigma, St. Louis, MO, USA) to a final concentration of 0.05% for another 4 h. Then, replacing the MTT solution with […] DMSO, and kept the plates being shaken for 3 min. The optical density of each well was measured on a microplate reader at λ = 570 nm.
as §2

[3] = tested on: mouse embryonic fibroblasts (NIH/3T3); test: Cytotoxicity on normal cells NIH/3T3; assay type: cell-based
Experimental: Anti-proliferative activity evaluation against two types of human cancer cells (MDA-MB-231 and HepG2), HUVECs and mouse embryonic fibroblasts (NIH/3T3, used as normal cells) were then carried out.

[4] = Homo sapiens, HepG2, 48 h, MTT, 48 h, mean ± SD, read-out: IC50 HepG2
[5] = Homo sapiens, HepG2, HepG2, converted from observed IC50s (μM), read-out: Experimental pIC50 (converted)
[6] = Mus musculus, NIH3T3, mean ± SD
[7] = MTT, 48 h, mean ± SD, read-out: IC50 HepG2
[8] = converted from observed IC50s (μM)

Row | Molecule | IC50 [1, 4] [µM] | IC50 [1, 5] [µM] | IC50 ([2]; Homo sapiens, MDA-MB-231, 48 h) [µM] | EC50 (HUVECs; Homo sapiens, HUVEC) [µM] | EC50 [3, 6] [µM] | IC50 [1, 7] [µM] | IC50 ([2]; 48 h) [µM] | selective inhibition, tumor cells versus HUVECs (HUVECs) | increase of activity compared with compound 2 ([1]; HepG2 IC50) | Experimental pIC50 [1, 8] | decline of activity in comparison with compound 2 ([1]; HepG2 IC50) | EC50 (HUVECs; read-out: EC50 HUVEC) [µM] | EC50 ([3]; mean ± SD) [µM]
1 | CO[C@@H]1C=C2[C@@H]3CC[C@H]([C@H](C)/C=C/[C@H](C)C(C)C)[C@@]3(C)CC[C@@H]2[C@@]2(C)CC[C@H](O)[C@H]3O[C@@]312 [Compound 1, (22E)-4α, 5α-epoxy-6β-methoxyergosta-7, 22-diene-3β-ol] | 138 ± 8.3 | 138 | 176 ± 5.1 | 144 ± 6.1 | 422 ± 9.3 | – | – | – | – | – | – | – | –
2 | CC(C)[C@@H](C)/C=C/[C@@H](C)[C@H]1CC[C@H]2C3=C[C@@H](O)[C@@]4(O)C[C@@H](O)CC[C@]4(C)C3=CC[C@]12C [Compound 2, (3β, 5α, 6β, 22E)-ergosta-7, 9 (11), 22-triene-3,5,6-triol] | < 100 | 62.5 | < 100 | 142 ± 3.6 | 303 ± 11.9 | 62.5 ± 1.3 | 56.3 ± 1.5 | significant selective inhibition against cancer cells | – | – | – | – | –
3 | CC(C)[C@@H](C)/C=C/[C@@H](C)[C@H]1CC[C@H]2C3=C[C@@H](O)[C@@]4(O)C[C@@H](O)CC[C@]4(C)[C@H]3CC[C@]12C [Compound 4, (3β, 5α, 6β, 22E)-ergosta-7, 22-diene-3,5,6-triol] | 175 ± 15.9 | 175 | 149 ± 8.7 | 345 ± 13.7 | > 500 | – | – | – | – | – | – | – | –
4 | CC(C)[C@@H](C)/C=C/[C@@H](C)[C@H]1CC[C@H]2C3=C[C@H](O)[C@@]4(O)C[C@@H](O)CC[C@]4(C)[C@H]3CC[C@]12C [Compound 5, (3β, 5α, 6α, 22E)-ergosta-7, 22-diene-3,5,6-triol] | 197 ± 20.1 | 197 | 114 ± 9.9 | 206 ± 12.2 | > 500 | – | – | – | – | – | – | – | –
5 | CC(C)[C@@H](C)/C=C/[C@@H](C)[C@H]1CC[C@H]2C3=C[C@H](O)[C@@]4(O)C[C@@H](O)CC[C@]4(C)[C@@]3(O)CC[C@]12C [Compound 6, (3β, 5α, 6α, 9α, 22E)-ergosta-7, 22-diene-3,5,6,9-tetrol] | 185 ± 9.5 | 185 | 224 ± 10 | 384 ± 10.9 | > 500 | – | – | – | – | – | – | – | –
6 | CC(C)[C@@H](C)/C=C/[C@@H](C)[C@H]1CC[C@H]2C3=C(CC[C@]12C)[C@@]1(C)CC[C@H](O)C[C@@]12O[C@H]2[C@H]3O [Compound 9, (3β, 5α, 6α, 7α, 22E)-5,6-epoxy-ergosta-8, 22-diene-3,7-diol] | 22.1 ± 0.9 | 22.1 | 20.3 ± 2.2 | 27.9 ± 1.7 | 183 ± 10.3 | – | – | – | approximately 3 folds | – | – | – | –
7 | CC(C)[C@@H](C)/C=C/[C@@H](C)[C@H]1CCC2=C3[C@H](O)[C@@H]4O[C@@]45C[C@@H](O)CC[C@]5(C)[C@H]3CC[C@@]21C [Compound 10, (3β, 5α, 6α, 7α, 22E)-5,6-epoxy-ergosta-8 (14), 22-diene-3,7-diol] | 50.6 ± 5.3 | 50.6 | 46.7 ± 5.4 | 48.7 ± 2.9 | 194 ± 9.6 | – | – | – | – | – | – | – | –
8 | CC(C)[C@@H](C)/C=C/[C@@H](C)[C@H]1CC[C@@H]2[C@]1(C)CC[C@H]1[C@]23C=C[C@]2(C[C@@H](O)CC[C@]12C)OO3 [Compound 11, (3β, 5α, 8α, 22E)-5,8-epidioxy-ergosta-6, 22-dien-3-ol] | 34.8 ± 2.6 | 34.8 | 44.6 ± 1.9 | 29.1 ± 3.2 | 197 ± 11.3 | – | – | – | – | – | – | – | –
9 | CC(C)[C@@H](C)/C=C/[C@@H](C)[C@H]1CC[C@H]2C3=CC=C4C[C@@H](O)CC[C@]4(C)[C@H]3CC[C@]12C [Compound 12, (3β, 22E)-ergosta-5,7, 22-trien-3-ol] | 75.6 ± 4.7 | – | 69.7 ± 5.8 | 72.4 ± 5.6 | 261 ± 12 | – | – | – | – | – | – | – | –
10 | CC(C)[C@@H](C)/C=C/[C@@H](C)[C@H]1CC[C@@H]2[C@]1(C)CC=C1[C@]23C=C[C@]2(C[C@@H](O)CC[C@]12C)OO3 [Compound 13, (3β, 5α, 8α, 22E)-5,8-epidioxy-ergosta-6, 9 (11), 22-trien-3-ol] | 44.5 ± 1.3 | 44.5 | 32.1 ± 3 | 51.6 ± 2.8 | 293 ± 17.2 | – | – | – | – | – | – | – | –
11 | CC(C)[C@@H](C)/C=C/[C@@H](C)[C@H]1CC[C@@]2(O)C3=C(CC[C@]12C)[C@@]1(C)CC[C@H](O)C[C@@]12O[C@H]2C3=O [Compound 14, (3β, 5α, 6α, 14α, 22E)-3, 14-dihydroxy-5,6-epoxy-ergosta-8, 22-dien-7-one] | 201 ± 6.4 | – | 189 ± 8.1 | 321 ± 18.9 | > 500 | – | – | – | – | – | – | – | –
12 | O=c1c(O)c(-c2ccc(O)cc2)oc2cc(O)cc(O)c12 [kaempferol, reference compound] | 45.4 ± 3.4 | 45.4 | 56.6 ± 3.1 | 35.5 ± 4.1 | 356 ± 15.9 | – | – | – | – | – | – | – | –
13 | (3β, 5α, 6β, 9α, 14α, 22E)-ergosta-7, 22-diene-3, 5, 6, 9, 14-pentol [Compound 8] | – | – | – | – | – | 286 ± 18.9 | 216 ± 14.3 | – | – | 3.543 | approximately 4.6 folds | 357 ± 19.5 | > 500
14 | (3β, 5α, 6β, 9α, 22E)-ergosta-7, 22-diene-3, 5, 6, 9-tetrol [Compound 3] | – | – | – | – | – | 130 ± 3.4 | 148 ± 5.8 | selective inhibition against HUVECs | – | 3.887 | – | 84 ± 6.7 | 365 ± 15.7
15 | (3β, 5α, 6β, 14α, 22E)-ergosta-7, 9 (11), 22-triene-3, 5, 6, 14-tetrol [Compound 7] | – | – | – | – | – | 156 ± 8.9 | 169 ± 11.1 | – | – | 3.806 | – | 188 ± 15.3 | > 500
